Test results: article PMC3866913 (Journal of medicinal chemistry, 2013)
Where two headings read alike, the source gives them in different places.

Columns and labels:
α7-nAChR [1] = target: T1, α7-nAChR (Mus musculus, UniProt P49582); settings: in vivo
α7-nAChR [2] = target: T2, α7-nAChR (Rattus norvegicus, UniProt Q05941); experiment: biochemical; type: binding; settings: two independent assays, each in duplicate
[3] = type: in vivo; settings: mice, i.v.
α7-nAChR [4] = target: T1, α7-nAChR; experiment: Blocking of [18F]7a with non-α7-nAChR CNS drugs in CD-1 mice; type: in vivo; settings: 2 mg/kg, s.c., 10 min before radiotracer, 90 min after tracer
α2β2-nAChR = α2β2-nAChR (Rattus norvegicus, UniProt P12389+P12390); experiment: Heteromeric nAChR binding, transfected HEK293 membranes, [3H]epibatidine
α7-nAChR [5] = settings: read-out: α7-nAChR Ki, cited from earlier work
α7-nAChR [6] = target: T1, α7-nAChR; parameters: species or system CD-1 mice; settings: in vivo
α7-nAChR [7] = target: T2, α7-nAChR; settings: read-out: KD of radiotracer at α7-nAChR; cited from earlier work

T1 sequence (P49582 23-502): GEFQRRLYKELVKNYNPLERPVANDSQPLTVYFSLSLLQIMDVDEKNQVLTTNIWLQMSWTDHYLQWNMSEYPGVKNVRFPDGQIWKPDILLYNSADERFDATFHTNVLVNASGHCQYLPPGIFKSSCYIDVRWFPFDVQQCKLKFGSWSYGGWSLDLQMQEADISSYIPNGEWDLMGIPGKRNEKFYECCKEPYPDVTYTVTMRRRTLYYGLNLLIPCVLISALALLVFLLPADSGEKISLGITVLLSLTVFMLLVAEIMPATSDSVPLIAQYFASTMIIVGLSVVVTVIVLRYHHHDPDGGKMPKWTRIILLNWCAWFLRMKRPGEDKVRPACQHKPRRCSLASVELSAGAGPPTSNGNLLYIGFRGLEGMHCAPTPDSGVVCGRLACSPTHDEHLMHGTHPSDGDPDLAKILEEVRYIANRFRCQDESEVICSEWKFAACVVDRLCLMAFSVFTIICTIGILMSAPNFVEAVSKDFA
Sequence of α2β2-nAChR (P12389 28-511): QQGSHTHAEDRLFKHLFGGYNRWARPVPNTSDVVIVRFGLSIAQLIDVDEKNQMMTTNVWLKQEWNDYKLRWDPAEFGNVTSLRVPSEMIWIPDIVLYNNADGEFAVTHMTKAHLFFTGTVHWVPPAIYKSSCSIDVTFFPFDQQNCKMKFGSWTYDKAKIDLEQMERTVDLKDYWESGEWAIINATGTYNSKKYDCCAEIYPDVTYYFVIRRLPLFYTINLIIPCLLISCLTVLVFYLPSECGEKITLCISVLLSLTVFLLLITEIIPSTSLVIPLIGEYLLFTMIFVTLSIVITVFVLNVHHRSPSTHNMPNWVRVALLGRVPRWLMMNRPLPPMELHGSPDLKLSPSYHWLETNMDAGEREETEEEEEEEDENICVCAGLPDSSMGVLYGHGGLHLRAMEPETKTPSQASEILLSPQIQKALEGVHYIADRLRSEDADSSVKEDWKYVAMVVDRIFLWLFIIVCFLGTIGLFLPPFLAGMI
Sequence of α2β2-nAChR (P12390 25-500): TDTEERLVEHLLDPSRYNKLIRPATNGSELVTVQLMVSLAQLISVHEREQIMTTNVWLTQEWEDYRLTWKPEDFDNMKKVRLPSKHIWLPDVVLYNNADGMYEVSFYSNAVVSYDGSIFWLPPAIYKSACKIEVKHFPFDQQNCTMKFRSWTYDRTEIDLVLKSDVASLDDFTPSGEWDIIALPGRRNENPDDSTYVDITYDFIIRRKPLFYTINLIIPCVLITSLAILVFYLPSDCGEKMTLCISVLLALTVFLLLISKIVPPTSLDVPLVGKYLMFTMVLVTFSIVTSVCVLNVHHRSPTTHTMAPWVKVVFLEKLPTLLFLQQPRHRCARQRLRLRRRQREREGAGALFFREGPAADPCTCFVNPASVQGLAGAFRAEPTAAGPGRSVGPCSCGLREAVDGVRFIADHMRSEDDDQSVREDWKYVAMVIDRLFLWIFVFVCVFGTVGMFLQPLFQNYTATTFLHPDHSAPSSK
T2 sequence (Q05941 23-502): as the sequence (P49582 23-502) above, with T402A counted along it

CN1CCC[C@H]1c1cccnc1 [nicotine]
blockade of [18F]7a accumulation in mouse brain (α7-nAChR [1]): significant blockade in all regions, except the nAChR-poor cerebellum

O=S1(=O)c2cc(N3CCN4CCC3CC4)ccc2-c2cccc(I)c21 [compound 14, 3-(1,4-Diazabicyclo[3.2.2]nonan-4-yl)-6-iododibenzo[b,d]thiophene 5,5-dioxide]
Ki (α7-nAChR [2]): 1.93 nM

O=S1(=O)c2ccc(F)cc2-c2ccc(N3CCN4CCC3CC4)cc21 [7c, 7-(1,4-Diazabicyclo[3.2.2]nonan-4-yl)-2-fluorodibenzo[b,d]thiophene 5,5-dioxide]
behavioral or locomotor activity changes ([3]; 0.2 mg/kg): Neither behavioral nor locomotor activity changes were observed

O=c1cccc2n1C[C@@H]1CNC[C@H]2C1 [cytisine]
blockade of [18F]7a accumulation in mouse brain (α7-nAChR [1]): insignificant reduction of radioactivity accumulation in all regions studied

Cc1nccn1CC1CCc2c(c3ccccc3n2C)C1=O (centres unmarked) [ondansetron, Ondansetron]
effect on accumulation of [18F]7a in mouse brain regions (α7-nAChR [4]): absence of blockade

O=S1(=O)c2cc(N3CCN4CCC3CC4)ccc2-c2cccc(F)c21 [7a, 3-(1,4-Diazabicyclo[3.2.2]nonan-4-yl)-6-fluorodibenzo[b,d]thiophene 5,5-dioxide]
Ki (α2β2-nAChR; read-out: α2β2 Ki, stably transfected HEK293 cells, [3H]epibatidine 0.5 nM): > 10000 nM | behavioral or locomotor activity changes ([3]; 0.3 mg/kg): Neither behavioral nor locomotor activity changes were observed

O=S1(=O)c2ccccc2-c2c(N3CCN4CCC3CC4)ccc(F)c21 [7e, 1-(1,4-Diazabicyclo[3.2.2]nonan-4-yl)-4-fluorodibenzo[b,d]thiophene 5,5-dioxide]
Ki (α2β2-nAChR): > 10000 nM

O=S1(=O)c2ccccc2-c2ccc(N3CCN4CCC3CC4)cc21 [compound 5, 3-(1,4-diazabicyclo[3.2.2]nonan-4-yl)dibenzo[b,d]thiophene 5,5-dioxide]
Ki (α7-nAChR [5]): 0.023 nM | blockade of [18F]7c accumulation in mouse brain (α7-nAChR [6]): Dose dependent blockade

[^125I]α-Bungarotoxin
Kd (α7-nAChR [7]): 0.7 nM

O=C(Oc1ccc(Br)cc1)N1CCN2CCC1CC2 [compound 1]
effect on accumulation of [18F]7a in mouse brain regions (α7-nAChR [4]): reduced accumulation of radioactivity | Ki (α7-nAChR [5]; ref [58]): 22 nM | blockade of [18F]7a binding in mouse brain (α7-nAChR [6]): dose dependent blockade in all regions studied
